# From BindingDB's records for doi:10.7270/Q2T43RPN (Burnham Center For Chemical Genomics, 2012)
# pIC50: −log10 of the molar value.
# Biological target: T1, Tyrosine-protein phosphatase non-receptor type 11 (Homo sapiens, UniProt Q06124)
# T1 sequence (Q06124 whole entry): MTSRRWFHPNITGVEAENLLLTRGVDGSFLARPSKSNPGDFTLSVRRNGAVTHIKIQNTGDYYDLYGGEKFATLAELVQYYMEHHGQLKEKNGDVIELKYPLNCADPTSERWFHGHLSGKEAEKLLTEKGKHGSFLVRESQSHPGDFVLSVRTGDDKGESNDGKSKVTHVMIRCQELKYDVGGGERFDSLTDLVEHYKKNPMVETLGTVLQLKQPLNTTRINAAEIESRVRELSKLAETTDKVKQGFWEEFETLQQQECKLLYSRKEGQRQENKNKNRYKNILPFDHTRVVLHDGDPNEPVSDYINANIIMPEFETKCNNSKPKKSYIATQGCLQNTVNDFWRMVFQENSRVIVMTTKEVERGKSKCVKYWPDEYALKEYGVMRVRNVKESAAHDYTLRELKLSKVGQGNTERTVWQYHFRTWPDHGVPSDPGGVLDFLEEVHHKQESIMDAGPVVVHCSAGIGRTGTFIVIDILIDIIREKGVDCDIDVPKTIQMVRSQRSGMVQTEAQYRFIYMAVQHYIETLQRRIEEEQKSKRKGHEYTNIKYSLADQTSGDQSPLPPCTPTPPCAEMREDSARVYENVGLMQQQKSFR
# Assay: PTPN11 enzyme inhibitors – biochemical, selectivity assay for STEP inhibitor project, dose response (AID 602367)
row,SMILES,pIC50
1,S=C1N=C(C23CC4CC(CC(C4)C2)C3)CC(c2ccc3c(c2)OCO3)N1 (stereo not given),4.82
2,"CCOc1cc(CN=Nc2nc(O)c(CC(=O)O)s2)ccc1OCc1ccc(Cl)cc1Cl [2-[2-[(N''E)-N''-[4-(2,4-dichlorobenzyl)oxy-3-ethoxy-benzylidene]hydrazino]-4-keto-2-thiazolin-5-yl]acetic acid]",5.66
3,"C=c1c(O)c(O)c(=C2C(=O)C(=O)C(C)C(=O)C2=O)c(O)c1O (stereo not given) [(3E)-5-hydroxy-6-methyl-3-(2,3,5-trihydroxy-4-methyl-6-oxo-1-cyclohexa-2,4-dienylidene)cyclohex-5-ene-1,2,4-trione]",> 6.80
4,"O=C1C(=O)N(CCCO)C(c2ccc(Br)cc2)C1C(=O)c1ccc(Br)cc1 (stereo not given) [(4E)-5-(4-bromophenyl)-4-[(4-bromophenyl)-oxidanyl-methylidene]-1-(3-oxidanylpropyl)pyrrolidine-2,3-dione]",4.23
5,S=C1N=C2C(=C3SCCS3)CCCC2C(c2ccccc2)N1 (stereo not given) [MLS000516376],5.28
6,CCN(CC)P(=O)(NC(=O)C(Cl)(Cl)Cl)N(CC)CC [MLS000564159],5.41
7,CSc1ccc(CN=Nc2ccc(S(=O)(=O)Nc3ccccc3C(=O)O)cc2[N+](=O)[O-])cc1 [MLS002245633],5.95
8,O=C(N/N=C/C1C=CC=CC1=O)c1cccc([N+](=O)[O-])c1 (stereo not given) [MLS002667988],5.62
9,COc1ccc(OC)c(-n2c(O)c3o[nH]c(-c4ccccc4Cl)c-3c2=O)c1 [SMR000046218],6.33
10,"COc1ccc(CN=Nc2nc(O)c(CC(=O)O)s2)cc1OCc1ccc(Cl)cc1Cl [[2-({3-[(2,4-dichlorobenzyl)oxy]-4-methoxybenzylidene}hydrazono)-4-oxo-1,3-thiazolidin-5-yl]acetic acid]",5.35
